This is an account of results in patent US8410145B2, “Insecticidal compounds” (Syngenta Crop Protection LLC, priority 2007, dated 2013).

Assay type in all cases: in vivo
Assay [1] deals with Spodoptera littoralis (Egyptian Cotton Leafworm). Put plainly: Spodoptera littoralis cotton leaf disc spray test. Particulars: foliar, 72 h, 200 ppm spray on cotton leaf discs, L1 larvae, mortality, feeding behavior, growth regulation 3 DAT. The text has this: (§1) Cotton leaf discs were placed on agar in a 24-well microtiter plate and sprayed with test solutions at an application rate of 200 ppm. After drying, the leaf discs were infested with 5 to L1 larvae. The samples were checked for mortality, feeding behavior, and growth regulation 3 days after treatment (DAT). The following compounds gave at least 80% control of Spodoptera littoralis: A1, A2, A3, A4, A6, A9, A10, A11, A12, A13, A14, A15, A16, A19, A20, A22, A23, A25, A26, A27, B1, B2, B3, B5, B6, B7, B8, B9, B11, B12, B13, B15, B16, B18, B19, B20, B21, B22, B24, B26, B27, B28, C1, C2, C3, C4, C5, C6, C7, C8, C9, C10, C12, C13, C16, C19, C20, C21, C22, C23, D1, D2, D3, D4, D5, D6, D7, D8, D9, D10, D11, D12, D13, D14, D15, D16, D17, D18, D19, D20, D21, D22, D23, D24. Heliothis virescens (Tobacco Budworm): Eggs (0-24 h old) were placed in 24-well microtiter plate on artificial diet and treated with test solutions at an application rate of 200 ppm (concentration in well 18 ppm) by pipetting. After an incubation period of 4 days, samples were checked for egg mortality, larval mortality, and growth regulation. The following compounds gave at least 80% control of Heliothis virescens: A1, A2, A3, A4, A13, A15, A17, A19, A20, A22, A23, A25, A26, A28, B1, B2, B3, B5, B6, B7, B9, B11, B13, B15, B18, B19, B20, B21, B25, B26, B27, B28, C1, C2, C3, C4, C5, C6, C7, C8, C9, C10, C12, C14, C16, C17, C19, C20, C21, C22, D1, D2, D3, D4, D5, D6, D7, D8, D9, D10, D11, D12, D13, D14, D15, D16, D17, D18, D19, D20, D21, D22, D23, E1, E2, E3, E4, E5. Plutella xylostella (Diamond Back Moth): 24-well microtiter plate (MTP) with artificial diet was treated with test solutions at an application rate of 200 ppm (concentration in well 18 ppm) by pipetting. After drying, the MTP's were infested with L2 larvae (7-12 per well). After an incubation period of 6 days, samples were checked for larval mortality and growth regulation. The following compounds gave at least 80% control of Plutella xylostella: A1, A3, A4, A10, All, A15, A19, A23, A25, B1, B2, B3, B5, B6, B7, B8, B9, B11, B13, B15, B18, B19, B20, B21, B26, B27, B28, C1, C2, C3, C4, C6, C7, C8, C9, C12, C16, C19, C20, C22, D1, D2, D3, D4, D5, D6, D7, D8, D9, D10, D12, D13, D14, D15, D16, D17, D18, D19, D20, D21, D22, D23, E1, E3, E5. Diabrotica balteata (Corn Root Worm): A 24-well microtiter plate (MTP) with artificial diet was treated with test solutions at an application rate of 200 ppm (concentration in well 18 ppm) by pipetting. After drying, the MTP's were infested with L2 larvae (6-10 per well). After an incubation period of 5 days, samples were checked for larval mortality and growth regulation. The following compounds gave at least 80% control of Diabrotica balteata: A2, A3, A4, A9, A11, A12, A13, A14, A15, A17, A19, A21, A22, A23, A24, A25, A26, B1, B2, B3, B6, B7, B8, B11, B13, B14, B15, B18, B19, B20, B21, B22, B26, B28, C1, C2, C3, C4, C5, C6, C7, C8, C9, C10, C12, C14, C15, C16, C19, C20, C21, C22, C23, C26, D1, D2, D4, D5, D6, D7, D8, D9, D10, D12, D14, D15, D16, D17, D18, D19, D20, D21, D22, D23, E2, E3, E5. Thrips tabaci (Onion Thrips): Sunflower leaf discs were placed on agar in a 24-well microtiter plate and sprayed with test solutions at an application rate of 200 ppm. After drying, the leaf discs were infested with an […] population of mixed ages. After an incubation period of 7 days, samples were checked for mortality. The following compounds gave at least 80% control of Thrips tabaci: B1, B7, B11, B15, B18, B19, B28, D1, D2, D3, D4, D5, D6, D7, D8, D9, D10, D12, D16, D18, D19, D20, D21, D23. Tetranychus urticae (Two-Spotted Spider Mite): Bean leaf discs on agar in 24-well microtiter plates were sprayed with test solutions at an application rate of 200 ppm. After drying, the leaf discs are infested with mite populations of mixed ages. 8 days later, discs are checked for egg mortality, larval mortality, and adult mortality. […]

The test system of assay [2] is Heliothis virescens (Tobacco Budworm). The experiment in a line: Heliothis virescens egg test on artificial diet. To be noted: 96 h, 200 ppm (concentration in well 18 ppm), eggs 0-24 h old on artificial diet, egg mortality, larval mortality, growth regulation after 4 days.
From the text: as §1

For assay [3], the system named is Plutella xylostella (Diamond Back Moth). The experiment in a line: Plutella xylostella larvae test on artificial diet. To be noted: 144 h, 200 ppm (concentration in well 18 ppm), L2 larvae, larval mortality and growth regulation after 6 days.
From the text: as §1

For assay [4], the system named is Diabrotica balteata (Corn Root Worm). Put plainly: Diabrotica balteata larvae test on artificial diet. Particulars: 120 h, 200 ppm (concentration in well 18 ppm), L2 larvae, larval mortality and growth regulation after 5 days.
From the text: as §1

Assay [5] has as its system Thrips tabaci (Onion Thrips). The experiment in a line: Thrips tabaci sunflower leaf disc spray test. To be noted: foliar, 168 h, 200 ppm spray on sunflower leaf discs, population of mixed ages, mortality after 7 days.
From the text: as §1

For assay [6], the system named is Tetranychus urticae (Two-Spotted Spider Mite). The experiment in a line: Tetranychus urticae bean leaf disc spray test. Particulars: foliar, 192 h, 200 ppm spray on bean leaf discs, mite populations of mixed ages, egg, larval and adult mortality 8 days later.
From the text: as §1

Assay [7] concerns Spodoptera littoralis, Heliothis virescens, Plutella xylostella, Diabrotica balteata, Thrips tabaci, Tetranychus urticae. The experiment in a line: Pesticidal tests, same protocols (all six pests taken together). To be noted: same protocols as b207 (200 ppm), under the test conditions.
From the text: as §1

For the compound `N#Cc1ccc(C2=NOC(c3cc(Cl)cc(Cl)c3)(C(F)(F)F)C2)cc1NC(=O)c1ccc([N+](=O)[O-])cc1` (stereo not drawn) [D8], the pest or weed control at 200 ppm in assay [1], in assay [2], in assay [3], in assay [4], in assay [5] and in assay [6] was at least 80% each time.

Consider `N#Cc1ccc(C2=NOC(c3cc(Cl)cc(Cl)c3)(C(F)(F)F)C2)cc1NC(=O)c1ccccc1` (stereo not drawn) [D2], for which the pest or weed control at 200 ppm in assay [1], in assay [2], in assay [3], in assay [4], in assay [5] and in assay [6] was at least 80% each time.

In the case of `Cc1ccc(C(=O)Nc2cc(C3=NOC(c4cc(Cl)cc(Cl)c4)(C(F)(F)F)C3)ccc2F)cc1` (stereo not drawn) [C9], the pest or weed control at 200 ppm in assay [1], in assay [2], in assay [3], in assay [4] and in assay [6] was at least 80% throughout.

Consider `O=C(Nc1cccc(C2=NOC(c3cc(Cl)cc(Cl)c3)(C(F)(F)F)C2)c1)c1ccc(F)c(C(F)(F)F)c1` (racemic) [A18], for which the “effect on mortality, feeding behavior, or growth regulation” value (shortened to “effect on mortality, feeding behavior”) in assay [7] is recorded as “little or no effect”.

`O=C(Nc1cc(C2=NOC(c3cc(Cl)cc(Cl)c3)(C(F)(F)F)C2)ccc1F)c1cc(C(F)(F)F)ccc1F` (racemic) [C25]: the “effect on mortality, feeding behavior” value in assay [7] is “little or no effect”.

Regarding `O=C(Nc1cccc(C2=NOC(c3cc(Cl)cc(Cl)c3)(C(F)(F)F)C2)c1F)c1cc(C(F)(F)F)ccc1F` (racemic) [B23], in assay [7], the “effect on mortality, feeding behavior” value is “little or no effect”.

In the case of `N#Cc1ccc(C2=NOC(c3cc(Cl)cc(Cl)c3)(C(F)(F)F)C2)cc1NC(=O)c1ccccc1F` (stereo not drawn) [D5], the pest or weed control at 200 ppm in assay [1], in assay [2], in assay [3], in assay [4] and in assay [5] was at least 80% throughout.

Consider `O=C(CBr)Nc1cccc(C2=NOC(c3cc(Cl)cc(Cl)c3)(C(F)(F)F)C2)c1` (stereo not drawn) [A8], for which the “effect on mortality, feeding behavior” value in assay [7] is listed as “little or no effect”.

On to `N#Cc1ccc(C2=NOC(c3cc(Cl)cc(Cl)c3)(C(F)(F)F)C2)cc1NC(=O)c1ccc(F)cc1F` (stereo not drawn) [D23], for which the pest or weed control at 200 ppm in assay [1], in assay [2], in assay [3], in assay [4] and in assay [5] was at least 80% each time.

On to `O=C(Nc1cccc(C2=NOC(c3cc(Cl)cc(Cl)c3)(C(F)(F)F)C2)c1F)c1ccc(F)cc1` (stereo not drawn) [B17], for which, in assay [7], the “effect on mortality, feeding behavior” value is given as “little or no effect”.

In the case of `O=C(Nc1cccc(C2=NOC(c3cc(Cl)cc(Cl)c3)(C(F)(F)F)C2)c1F)c1ccco1` (stereo not drawn) [B10], the “effect on mortality, feeding behavior” value in assay [7] is on record as “little or no effect”.

`O=C(Nc1cccc(C2=NOC(c3cc(Cl)cc(Cl)c3)(C(F)(F)F)C2)c1F)c1ccccc1F` (stereo not drawn) [B1]: the pest or weed control at 200 ppm in assay [1], in assay [2], in assay [3], in assay [4] and in assay [5] was at least 80% each time.

`O=C(Cc1ccc(Cl)cc1)Nc1cccc(C2=NOC(c3cc(Cl)cc(Cl)c3)(C(F)(F)F)C2)c1` (stereo not drawn) [A5]: in assay [7], the “effect on mortality, feeding behavior” value is “little or no effect”.

Turning to `O=C(Nc1cc(C2=NOC(c3cc(Cl)cc(Cl)c3)(C(F)(F)F)C2)ccc1F)c1cc(Cl)ccc1F` (racemic) [C11], the “effect on mortality, feeding behavior” value in assay [7] is recorded as “little or no effect”.

For `COc1ccccc1C(=O)Nc1cccc(C2=NOC(c3cc(Cl)cc(Cl)c3)(C(F)(F)F)C2)c1F` (stereo not drawn) [B15], the pest or weed control at 200 ppm in assay [1], in assay [2], in assay [3], in assay [4] and in assay [5] was at least 80% throughout.

On to `COc1ccccc1C(=O)Nc1cc(C2=NOC(c3cc(Cl)cc(Cl)c3)(C(F)(F)F)C2)ccc1F` (stereo not drawn) [C18], for which the “effect on mortality, feeding behavior” value in assay [7] is recorded as “little or no effect”.

For `O=C(Nc1cccc(C2=NOC(c3cc(Cl)cc(Cl)c3)(C(F)(F)F)C2)c1F)c1ccc([N+](=O)[O-])cc1` (stereo not drawn) [B5], the pest or weed control at 200 ppm in assay [1], in assay [2], in assay [3] and in assay [6] was at least 80% throughout.

Turning to `N#Cc1ccc(C(=O)Nc2cccc(C3=NOC(c4cc(Cl)cc(Cl)c4)(C(F)(F)F)C3)c2F)cc1` (stereo not drawn) [B4], the “effect on mortality, feeding behavior” value in assay [7] is on record as “little or no effect”.

Turning to `N#Cc1ccc(C(=O)Nc2cccc(C3=NOC(c4cc(Cl)cc(Cl)c4)(C(F)(F)F)C3)c2)cc1` (stereo not drawn) [A4, 4-cyano-N-{3-[5-(3,5-dichloro-phenyl)-5-trifluoromethyl-4,5-dihydro-isoxazol-3-yl]phenyl}-benzamide], the pest or weed control at 200 ppm in assay [1], in assay [2], in assay [3], in assay [4] and in assay [6] was at least 80% each time.

In the case of `O=C(Nc1cc(C2=NOC(c3cc(Cl)cc(Cl)c3)(C(F)(F)F)C2)ccc1F)c1ccc(F)cc1F` (stereo not drawn) [C24], in assay [7], the “effect on mortality, feeding behavior” value is “little or no effect”.
